Key:
[1] = biological target: KRAS^G12C (Homo sapiens, UniProt P01116, G12C); set-up: endogenous in NCI-H358; KRAS degradation by capillary electrophoresis (Wes) immunodetection; conditions: NCI-H358; 6 h; degrader
Method: Protein Detection by Capillary Electrophoresis Cells (50 000) were seeded the day before treatment into 96-well clear-flat bottom plates and incubated overnight (37 °C, humidified tissue culture incubator, 5% CO2). […] At the end of the incubation, medium was removed, cells washed with ice cold PBS, PBS removed and 50 µL lysis buffer (Meso Scale Discovery #R60TX-2) supplemented with 1:100 protease inhibitor solution, 1:100 phosphatase inhibitor I, 1:100 phosphatase inhibitor II (Meso Scale Discovery #R70AA-1), 0.5 µL/mL Benzonase (Novagen #70664-3) and 10 mM dithiothreitol added to each well. Plates with lysis buffer were immediately transferred to -80 °C freezer for at least 2 hours and then thawed on ice. Lysates were transferred to a 96 well V-bottom plate and insoluble debris was pelleted by centrifugation for 20 min. at 4 000 rpm. 40 µL of the supernatant were transferred to a fresh Eppendorf PCR plate. Analysis of protein levels was conducted using the Wes System, ProteinSimple (https://www.bio-techne.com/) as specified by the manufacturer. Briefly, Wes Master Mix (12-230 kDa WES Separation Module, 8 × 25 capillary cartridges, ProteinSimple #SM-W004) and molecular weight markers were prepared as specified in the manufacturer’s recommendations. To detect primary antibodies, anti-rabbit (Protein Simple #DM-001) or anti-mouse (Protein Simple #DM-002) detection modules were used. […]

[2] = biological target: T1, VCB:KRAS ternary complex partners (Homo sapiens, UniProt P01116+P40337, P01116:C118S/P01116:G12D); experiment: biochemical; set-up: FP displacement of FAM-HIF-1alpha peptide from VCB, with or without saturating KRAS G12D; conditions: FP, saturating KRAS G12D
T1 construct: VCB (Avi-tagged, biotinylated for SPR) plus KRAS 1-169 C118S GDP; E. coli, His6 tags removed; with Elongin-C; Elongin-B

[3] = biological target: T2, KRAS^WT (Homo sapiens, UniProt P01116); set-up: KRAS degradation by capillary electrophoresis immunodetection; conditions: read-out: DC50 24 h HEK293
T2 construct: endogenous wild type
Method: Protein Detection by Capillary Electrophoresis Cells (50 000) were seeded the day before treatment into 96-well clear-flat bottom plates and incubated overnight (37 °C, humidified tissue culture incubator, 5% CO2). Compounds were added from DMSO stock solution using a digital dispenser and cells are incubated at 37 °C as specified (24 hours for KRAS degradation, 6 hours for determination of pERK levels). At the end of the incubation, medium was removed, cells washed with ice cold PBS, PBS removed and 50 µL lysis buffer (Meso Scale Discovery #R60TX-2) supplemented with 1:100 protease inhibitor solution, 1:100 phosphatase inhibitor I, 1:100 phosphatase inhibitor II (Meso Scale Discovery #R70AA-1), 0.5 µL/mL Benzonase (Novagen #70664-3) and 10 mM dithiothreitol added to each well. Plates with lysis buffer were immediately transferred to -80 °C freezer for at least 2 hours and then thawed on ice. Lysates were transferred to a 96 well V-bottom plate and insoluble debris was pelleted by centrifugation for 20 min. at 4 000 rpm. 40 µL of the supernatant were transferred to a fresh Eppendorf PCR plate. Analysis of protein levels was conducted using the Wes System, ProteinSimple (https://www.bio-techne.com/) as specified by the manufacturer. […]

[4] = biological target: T3, VHL-NanoLuc (Homo sapiens, UniProt P40337); experiment: NanoBRET VHL target engagement; format: cell-based
T3 construct: VHL-NanoLuc fusion (Promega) transfected into HEK293; endogenous elongins
T3 sequence (P40337 whole entry, the tested form may be a part): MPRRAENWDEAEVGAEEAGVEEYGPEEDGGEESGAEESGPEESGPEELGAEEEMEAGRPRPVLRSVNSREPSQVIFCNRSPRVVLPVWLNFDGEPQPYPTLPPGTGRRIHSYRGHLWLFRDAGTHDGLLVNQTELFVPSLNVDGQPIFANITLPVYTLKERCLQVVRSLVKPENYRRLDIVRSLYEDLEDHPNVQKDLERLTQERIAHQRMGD

T2 sequence (P01116 whole entry): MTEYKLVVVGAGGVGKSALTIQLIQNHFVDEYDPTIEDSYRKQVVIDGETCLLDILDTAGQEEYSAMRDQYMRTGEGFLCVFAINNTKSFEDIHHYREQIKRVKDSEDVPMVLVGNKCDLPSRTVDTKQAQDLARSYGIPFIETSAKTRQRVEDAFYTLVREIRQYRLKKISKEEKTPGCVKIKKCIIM
Sequence of KRAS^G12C (P01116 whole entry G12C): as the sequence (P01116 whole entry) above, with G12C counted along it
T1 sequence (Q15370 1-104): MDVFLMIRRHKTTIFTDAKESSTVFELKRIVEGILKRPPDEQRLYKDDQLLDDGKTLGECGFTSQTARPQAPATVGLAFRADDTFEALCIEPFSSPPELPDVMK
T1 sequence (P01116 1-169 G12D/C118S): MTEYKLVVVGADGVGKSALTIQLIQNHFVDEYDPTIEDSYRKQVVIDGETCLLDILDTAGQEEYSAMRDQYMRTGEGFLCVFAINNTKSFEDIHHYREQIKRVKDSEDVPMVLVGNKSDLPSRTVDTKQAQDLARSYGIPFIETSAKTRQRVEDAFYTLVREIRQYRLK
T1 sequence (Q15369 17-112, further chain): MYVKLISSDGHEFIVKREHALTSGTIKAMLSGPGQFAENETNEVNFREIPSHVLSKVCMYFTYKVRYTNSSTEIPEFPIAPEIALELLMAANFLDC
T1 sequence (P40337 54-213): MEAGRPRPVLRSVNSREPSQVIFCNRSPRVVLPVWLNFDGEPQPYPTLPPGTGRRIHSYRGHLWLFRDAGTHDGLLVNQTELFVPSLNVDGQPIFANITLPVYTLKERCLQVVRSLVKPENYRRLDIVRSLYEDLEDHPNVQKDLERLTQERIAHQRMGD

| DC50 [1] [nM] | Kd [2] [nM] | DC50 [3] [nM] | IC50 [4] [nM] | SMILES |
| --- | --- | --- | --- | --- |
| 159 | 20 ± 3 | > 1000 |  | Cc1ncsc1-c1ccc(CNC(=O)[C@@H]2C[C@@H](O)CN2C(=O)[C@@H](NC(=O)CCCCCN2CCCN(c3nccc(-c4noc([C@@]5(C)CCCc6sc(N)c(C#N)c65)n4)n3)[C@@H](C)C2)C(C)(C)C)cc1 [compound 3] |
| 19.6 |  | 86.7 |  | Cc1ncsc1-c1ccc(CNC(=O)[C@@H]2C[C@@H](O)CN2C(=O)[C@@H](c2cc(OCCCCN3CCCN(c4nccc(-c5noc([C@@]6(C)CCCc7sc(N)c(C#N)c76)n5)n4)[C@@H](C)C3)no2)C(C)C)cc1 [compound 4] |
|  | 15 ± 2 |  | 5000 | Cc1ncsc1-c1ccc(CNC(=O)[C@@H]2C[C@@H](O)CN2C(=O)[C@@H](NC(=O)COCCCN2CCCN(c3nccc(-c4noc([C@@]5(C)CCCc6sc(N)c(C#N)c65)n4)n3)[C@@H](C)C2)C(C)(C)C)cc1 [compound 2] |

Reference: paper doi:10.1101/2023.10.24.563163v2, “Targeting cancer with small molecule pan-KRAS degraders” (biorxiv, 2024)
